Target: T1, Amine oxidase [flavin-containing] A (Homo sapiens, UniProt P21397)
T1 sequence (P21397 whole entry): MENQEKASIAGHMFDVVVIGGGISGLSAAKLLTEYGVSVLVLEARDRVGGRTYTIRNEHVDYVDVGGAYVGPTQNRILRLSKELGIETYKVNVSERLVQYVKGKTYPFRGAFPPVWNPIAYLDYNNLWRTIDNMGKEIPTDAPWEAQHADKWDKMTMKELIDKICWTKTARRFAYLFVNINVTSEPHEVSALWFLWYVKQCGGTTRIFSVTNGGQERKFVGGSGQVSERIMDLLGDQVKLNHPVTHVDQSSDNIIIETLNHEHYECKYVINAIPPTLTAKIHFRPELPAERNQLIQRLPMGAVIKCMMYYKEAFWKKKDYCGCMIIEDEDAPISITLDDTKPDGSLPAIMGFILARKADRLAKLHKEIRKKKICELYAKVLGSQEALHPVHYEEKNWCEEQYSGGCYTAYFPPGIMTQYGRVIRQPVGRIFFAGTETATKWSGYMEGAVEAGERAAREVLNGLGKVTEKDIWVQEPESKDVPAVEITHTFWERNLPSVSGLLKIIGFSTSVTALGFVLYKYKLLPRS
Assay: […]

| Ki | SMILES |
| --- | --- |
| 9.51 nM | Cn1cccc1C(=O)[C@H](c1ccccc1)N1CCCC1 [1-(1-Methyl-1H-pyrrol-2-yl)-2-phenyl-2-pyrrolidin-1-yl-ethanone (+)-S] |
| 3.5 nM | Cn1cccc1C(=O)[C@@H](c1ccccc1)N1CCCC1 [1-(1-Methyl-1H-pyrrol-2-yl)-2-phenyl-2-pyrrolidin-1-yl-ethanone (-)-R] |

Reference: BindingDB's records for doi:10.1016/j.bmcl.2011.02.072 (Bharati Vidyapeeth Deemed University, 2011)
